Laboratory results taken from article PMC9090415, “Discovery of small molecule inhibitors of Plasmodium falciparum apicoplast DNA polymerase” (Journal of Enzyme Inhibition and Medicinal Chemistry, 2022).

Biological target: P. falciparum apicoplast DNA polymerase (Pf-apPOL) (Plasmodium falciparum, UniProt Q8ILY1)
Assay: Fluorescence-based high-throughput DNA polymerase assay (molecular beacon), primary screen and dose-response;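 on % inhibition ApPOL 90': test concentration in µM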;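 on % inhibition apPOL 180': test concentration in µM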
Type: biochemical
Summary of the method: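 Single-point screening used 10 µM compound with 20 nM polymerase, 20 nM hairpin substrate and 6 µM dNTPs for 90 min at 25 °C. Confirmatory titrations (2.5–80 µM) followed fluorescence at three times, and IC50 was derived from a fit including a cooperativity term n.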

[1] = primary screen value of the 186 hits; unit not given; 90 min, 10 µM

Chain of P. falciparum apicoplast DNA polymerase (Pf-apPOL) (Q8ILY1 entry or part of it): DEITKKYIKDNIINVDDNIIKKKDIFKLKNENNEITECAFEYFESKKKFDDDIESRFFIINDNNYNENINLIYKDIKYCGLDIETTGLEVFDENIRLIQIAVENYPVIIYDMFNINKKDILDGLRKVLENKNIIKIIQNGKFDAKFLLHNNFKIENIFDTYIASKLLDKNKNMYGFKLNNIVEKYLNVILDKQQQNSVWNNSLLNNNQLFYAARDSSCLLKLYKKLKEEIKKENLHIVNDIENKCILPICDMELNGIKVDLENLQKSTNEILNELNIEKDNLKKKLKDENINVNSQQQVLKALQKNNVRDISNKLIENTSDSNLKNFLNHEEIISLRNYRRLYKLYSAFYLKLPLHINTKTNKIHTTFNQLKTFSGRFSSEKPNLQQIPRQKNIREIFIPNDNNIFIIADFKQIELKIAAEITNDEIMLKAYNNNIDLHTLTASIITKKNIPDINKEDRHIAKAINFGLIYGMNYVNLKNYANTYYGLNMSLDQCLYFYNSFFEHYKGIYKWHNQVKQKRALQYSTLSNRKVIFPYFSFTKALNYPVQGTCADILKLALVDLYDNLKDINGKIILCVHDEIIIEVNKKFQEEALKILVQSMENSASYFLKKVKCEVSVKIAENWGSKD

SMILES: COc1ccc(C)cc1NC(=O)Cn1ccc2c(=O)[nH]ccc21 [Molecule 15, COc1ccc(cc1NC(=O)Cn1ccc2c1cc[nH]c2=O)C]
- % inhibition Apo pol 10' (DRC-1; 10'; concentration 2.5): 1.7584%
- % inhibition Apo pol 10' (DRC-1; 10'; concentration 5): 31.9729%
- % inhibition Apo pol 10' (DRC-1; 10'; concentration 10): 59.9251%
- % inhibition Apo pol 10' (DRC-1; 10'; concentration 20): 81.9832%
- % inhibition Apo pol 10' (DRC-1; 10'; concentration 40): 82.3162%
- % inhibition Apo pol 10' (DRC-1; 10'; concentration 80): 74.4719%
- % inhibition Apol 90' (DRC-1; 90'; concentration 2.5): -2.786%
- % inhibition Apol 90' (DRC-1; 90'; concentration 5): 18.8368%
- % inhibition Apol 90' (DRC-1; 90'; concentration 10): 46.9508%
- % inhibition Apol 90' (DRC-1; 90'; concentration 20): 77.5716%
- % inhibition Apol 90' (DRC-1; 90'; concentration 40): 84.7552%
- % inhibition Apol 90' (DRC-1; 90'; concentration 80): 84.8173%
- % inhibition apPOL 180' (DRC-1; 180'; concentration 2.5): -5.413%
- % inhibition apPOL 180' (DRC-1; 180'; concentration 5): 6.847%
- % inhibition apPOL 180' (DRC-1; 180'; concentration 10): 30.4146%
- % inhibition apPOL 180' (DRC-1; 180'; concentration 20): 67.1672%
- % inhibition apPOL 180' (DRC-1; 180'; concentration 40): 81.3984%
- % inhibition apPOL 180' (DRC-1; 180'; concentration 80): 86.595%
- % inhibition Apo pol 5' (DRC-2; 5'; concentration 2.5): 1.82%
- % inhibition Apo pol 5' (DRC-2; 5'; concentration 5): 24%
- % inhibition Apo pol 5' (DRC-2; 5'; concentration 10): 47%
- % inhibition Apo pol 5' (DRC-2; 5'; concentration 20): 44%
- % inhibition Apo pol 5' (DRC-2; 5'; concentration 40): 34%
- % inhibition Apo pol 5' (DRC-2; 5'; concentration 80): 8%
- % inhibition Apol 40' (DRC-2; 40'; concentration 2.5): 0.779%
- % inhibition Apol 40' (DRC-2; 40'; concentration 5): 28%
- % inhibition Apol 40' (DRC-2; 40'; concentration 10): 63%
- % inhibition Apol 40' (DRC-2; 40'; concentration 20): 65%
- % inhibition Apol 40' (DRC-2; 40'; concentration 40): 60%
- % inhibition Apol 40' (DRC-2; 40'; concentration 80): 46%
- % inhibition ApPOL 90' (DRC-2; 90'; concentration 2.5): -0.827%
- % inhibition ApPOL 90' (DRC-2; 90'; concentration 5): 24%
- % inhibition ApPOL 90' (DRC-2; 90'; concentration 10): 64%
- % inhibition ApPOL 90' (DRC-2; 90'; concentration 20): 67%
- % inhibition ApPOL 90' (DRC-2; 90'; concentration 40): 66%
- % inhibition ApPOL 90' (DRC-2; 90'; concentration 80): 55%
- % inhibition apPOL 180' (DRC-2; 180'; concentration 2.5): -8%
- % inhibition apPOL 180' (DRC-2; 180'; concentration 5): 12%
- % inhibition apPOL 180' (DRC-2; 180'; concentration 10): 58%
- % inhibition apPOL 180' (DRC-2; 180'; concentration 20): 66%
- % inhibition apPOL 180' (DRC-2; 180'; concentration 40): 72%
- % inhibition apPOL 180' (DRC-2; 180'; concentration 80): 64%
- % inhibition Apo pol 5' (conc. 5; 5'; DRC-2): 24%
- % inhibition ApPOL 90' (conc. 5; 90'; DRC-2): 24%
- % inhibition ApPOL 90' (conc. 10; 90'; DRC-2): 64%
- % inhibition apPOL 180' (conc. 20; 180'; DRC-2): 66%
- % inhibition ApPOL 90' (conc. 40; 90'; DRC-2): 66%
- % inhibition apPOL 180' (conc. 80; 180'; DRC-2): 64%
- DNA Pol (primary screen value by plate and well; 90 min, 10 µM): 73
- DNA Pol [1]: 73

SMILES: Cc1ccc(C2=N/C(=C\c3ccc(I)o3)C(=O)O2)cc1[N+](=O)[O-] [KU0073890]
- % inhibition Apo pol 10' (DRC-1; concentration 2.5; 10'): 15.7556%
- % inhibition Apol 90' (DRC-1; concentration 2.5; 90'): 9.731%
- % inhibition apPOL 180' (DRC-1; concentration 2.5; 180'): 6.694%
- % inhibition Apo pol 10' (DRC-1; concentration 5; 10'): 16.0721%
- % inhibition Apol 90' (DRC-1; concentration 5; 90'): 7.063%
- % inhibition apPOL 180' (DRC-1; concentration 5; 180'): 1.084%
- % inhibition Apo pol 10' (DRC-1; concentration 10; 10'): 45.023%
- % inhibition Apol 90' (DRC-1; concentration 10; 90'): 27.25%
- % inhibition apPOL 180' (DRC-1; concentration 10; 180'): 14.7198%
- % inhibition Apo pol 10' (DRC-1; concentration 20; 10'): 76.1272%
- % inhibition Apol 90' (DRC-1; concentration 20; 90'): 60.0756%
- % inhibition apPOL 180' (DRC-1; concentration 20; 180'): 43.2832%
- % inhibition Apo pol 10' (DRC-1; concentration 40; 10'): 86.9883%
- % inhibition Apol 90' (DRC-1; concentration 40; 90'): 86.9491%
- % inhibition apPOL 180' (DRC-1; concentration 40; 180'): 82.7565%
- % inhibition Apo pol 10' (DRC-1; concentration 80 (unit not given); 10'): 80.4424%
- % inhibition Apol 90' (DRC-1; concentration 80; 90'): 89.2693%
- % inhibition apPOL 180' (DRC-1; concentration 80; 180'): 91.2118%
- % inhibition Apo pol 5' (DRC-2; 5'; concentration 2.5): 19%
- % inhibition Apol 40' (DRC-2; 40'; concentration 2.5): 19%
- % inhibition ApPOL 90' (DRC-2; 90'; concentration 2.5): 17%
- % inhibition ApPOL 90' (DRC-2; 90'; concentration 40): 75%
- % inhibition ApPOL 90' (DRC-2; 90'; concentration 80): 75%
- % inhibition apPOL 180' (DRC-2; 180'; concentration 5): 17%
- % inhibition Apo pol 5' (DRC-2; concentration 2.5; 5'): 19%
- % inhibition Apol 40' (DRC-2; concentration 2.5; 40'): 19%
- % inhibition ApPOL 90' (DRC-2; concentration 2.5; 90'): 17%
- % inhibition apPOL 180' (DRC-2; concentration 2.5; 180'): 11%
- % inhibition Apo pol 5' (DRC-2; concentration 5; 5'): 35%
- % inhibition Apol 40' (DRC-2; concentration 5; 40'): 32%
- % inhibition ApPOL 90' (DRC-2; concentration 5; 90'): 29%
- % inhibition apPOL 180' (DRC-2; concentration 5; 180'): 17%
- % inhibition Apo pol 5' (DRC-2; concentration 10; 5'): 44%
- % inhibition Apol 40' (DRC-2; concentration 10; 40'): 42%
- % inhibition ApPOL 90' (DRC-2; concentration 10; 90'): 38%
- % inhibition apPOL 180' (DRC-2; concentration 10; 180'): 25%
- % inhibition Apo pol 5' (DRC-2; concentration 20; 5'): 55%
- % inhibition Apol 40' (DRC-2; concentration 20; 40'): 62%
- % inhibition ApPOL 90' (DRC-2; concentration 20; 90'): 60%
- % inhibition apPOL 180' (DRC-2; concentration 20; 180'): 51%
- % inhibition Apo pol 5' (DRC-2; concentration 40; 5'): 58%
- % inhibition Apol 40' (DRC-2; concentration 40; 40'): 73%
- % inhibition ApPOL 90' (DRC-2; concentration 40; 90'): 75%
- % inhibition apPOL 180' (DRC-2; concentration 40; 180'): 77%
- % inhibition Apo pol 5' (DRC-2; concentration 80; 5'): 49%
- % inhibition Apol 40' (DRC-2; concentration 80; 40'): 70%
- % inhibition ApPOL 90' (DRC-2; concentration 80; 90'): 75%
- % inhibition apPOL 180' (DRC-2; concentration 80; 180'): 80%
- DNA Pol [1]: 42
- DNA Pol (primary screen value; head prints only 'DNA Pol'; 90 min, 10 µM): 42
